Results from US20230295109A1, “PYRIDINONE COMPOUNDS FOR THE TREATMENT OF AUTOIMMUNE DISEASE” (F. Hoffmann-La Roche AG, priority 2020, published 2023).

Assays:
TLR9 = target: T1, TLR9 (Homo sapiens, UniProt Q9NR96); assay: HEK293-Blue-hTLR-9 cells assay; type: cell-based; design: host or cells: HEK293 (HEK-Blue hTLR9); conditions: HEK293-Blue-hTLR9 cells, ODN2006 stimulation, 20 hrs, SEAP reporter; read-out: HEK/hTLR9 IC50
T1 sequence (Q9NR96 26-1032): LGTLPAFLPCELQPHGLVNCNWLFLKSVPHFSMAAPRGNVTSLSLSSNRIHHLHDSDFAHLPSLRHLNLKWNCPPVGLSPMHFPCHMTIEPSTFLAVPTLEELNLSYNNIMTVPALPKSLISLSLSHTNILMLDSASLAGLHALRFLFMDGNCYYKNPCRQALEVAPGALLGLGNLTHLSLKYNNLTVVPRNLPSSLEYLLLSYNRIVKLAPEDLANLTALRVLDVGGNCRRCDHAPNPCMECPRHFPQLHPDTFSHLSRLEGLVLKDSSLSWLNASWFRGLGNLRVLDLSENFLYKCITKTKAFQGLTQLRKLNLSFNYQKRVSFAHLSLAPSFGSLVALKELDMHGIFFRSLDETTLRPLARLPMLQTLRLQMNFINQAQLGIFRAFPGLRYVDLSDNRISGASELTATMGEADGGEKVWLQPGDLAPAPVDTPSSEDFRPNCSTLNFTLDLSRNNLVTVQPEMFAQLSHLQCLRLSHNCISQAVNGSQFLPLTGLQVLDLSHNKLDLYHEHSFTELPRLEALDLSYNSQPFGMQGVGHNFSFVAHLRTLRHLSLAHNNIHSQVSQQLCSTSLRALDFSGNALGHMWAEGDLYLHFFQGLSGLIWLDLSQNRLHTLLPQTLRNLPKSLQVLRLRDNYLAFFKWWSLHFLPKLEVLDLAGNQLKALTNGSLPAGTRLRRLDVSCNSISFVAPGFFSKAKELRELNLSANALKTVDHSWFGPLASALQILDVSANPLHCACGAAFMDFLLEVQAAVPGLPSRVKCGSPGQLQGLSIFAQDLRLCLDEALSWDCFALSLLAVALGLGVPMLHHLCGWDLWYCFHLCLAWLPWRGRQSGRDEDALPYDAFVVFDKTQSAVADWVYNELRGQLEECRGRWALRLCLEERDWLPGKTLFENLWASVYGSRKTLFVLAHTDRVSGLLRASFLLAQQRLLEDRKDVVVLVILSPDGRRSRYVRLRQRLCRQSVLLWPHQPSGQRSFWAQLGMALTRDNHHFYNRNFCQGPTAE
Description: A stable HEK293-Blue-hTLR-9 cell line was purchased from InvivoGen (Cat.#: hkb-htlr9, San Diego, California, USA). These cells were originally designed for studying the stimulation of human TLR9 by monitoring the activation of NF-κB. A SEAP (secreted embryonic alkaline phosphatase) reporter gene was placed under the control of the IFN-β minimal promoter fused to five NF-κB and AP-1-binding sites. The SEAP was induced by activating NF-κB and AP-1 via stimulating HEK-Blue hTLR9 cells with TLR9 ligands. Therefore the reporter expression was declined by TLR9 antagonist under the stimulation of a ligand, such as ODN2006 (Cat.#: tlrl-2006-1, Invivogen, San Diego, California, USA), for incubation of 20 hrs. The cell culture supernatant SEAP reporter activity was determined using QUANTI-Blue™ kit (Cat.#: rep-qb1, Invivogen, San Diego, California, USA) at a wavelength of 640 nm, a detection medium that turns purple or blue in the presence of alkaline phosphatase.
HEK293-Blue-hTLR9 cells were incubated at a density of 250,000~450,000 cells/mL in a volume of 170 µL in a 96-well plate in Dulbecco’s Modified Eagle’s medium (DMEM) containing 4.5 g/L glucose, 50 U/mL penicillin, […], […], 2 mM L-glutamine, 10% (v/v) heat-inactivated fetal bovine serum with addition of 20 µL test compound in a serial dilution in the presence of final DMSO at 1% and 10 µL of 20uM ODN2006 in above DMEM, perform incubation under 37° C. in a CO2 incubator for 20 hrs. Then 20 µL of the supernatant from each well was incubated with 180 µL Quanti-blue substrate solution at 37° C. for 2 h and the absorbance was read at 620 \~655 nm using a spectrophotometer. The signaling pathway that TLR9 activation leads to downstream NF-κB activation has been widely accepted, and therefore similar reporter assay was modified for evaluating TLR9 antagonist.

[1] = Human microsome stability assay; type: in vitro ADME; conditions: 1 µM test compound, 0.5 mg/mL liver microsomal protein, 37° C., pH 7.4
Protocol: The human microsomal stability assay is used for early assessment of metabolic stability of a test compound in human liver microsomes.
Human liver microsomes (Cat.NO.: 452117, Corning, USA;Cat.NO.:H2610, Xenotech, USA) were preincubated with test compound for 10 minutes at 37° C. in 100 mM potassium phosphate buffer, pH 7.4. The reactions were initiated by adding NADPH regenerating system. The final incubation mixtures contained 1 µM test compound, 0.5 mg/mL liver microsomal protein, 1 mM MgCl2, 1 mM NADP, 1 unit/mL isocitric dehydrogenase and 6 mM isocitric acid in 100 mM potassium phosphate buffer, pH 7.4. After incubation times of 0, 3, 6, 9, 15 and 30 minutes at 37° C., 300 µL of cold acetonitrile (including internal standard) was added to 100 µL incubation mixture to terminate the reaction. Following precipitation and centrifugation, the amount of compound remaining in the samples were determined by LC-MS/MS. Controls of no NADPH regenerating system at zero and 30 minutes were also prepared and analyzed.

IC50 (TLR9)	Clearance of Human microsome [1]	Structure (SMILES)
143 nM	7.4 mL/min/kg	Cc1cc(-c2ccc(N3CCN(Cc4ccc(N5CCNCC5)cn4)CC3)nc2C(C)C)cn(C)c1=O [Example 7, 5-[2-isopropyl-6-[4-[(5-piperazin-1-yl-2-pyridyl)methyl]piperazin-1-yl]-3-pyridyl]-1,3-dimethyl-pyridin-2-one]
176 nM	8.3 mL/min/kg	Cc1cc(-c2ccc(N3CCN(Cc4cnc(N5CCNCC5)cn4)CC3)nc2C(C)C)cn(C)c1=O [Example 8, 5-[2-isopropyl-6-[4-[(5-piperazin-1-ylpyrazin-2-yl)methyl]piperazin-1-yl]-3-pyridyl]-1,3-dimethyl-pyridin-2-one]
183 nM	7.8 mL/min/kg	Cc1cc(-c2ccc(N3CCN(Cc4cnc(N5CCNCC5)nc4)CC3)nc2C(C)C)cn(C)c1=O [Example 9, 5-[2-isopropyl-6-[4-[(2-piperazin-1-ylpyrimidin-5-yl)methyl]piperazin-1-yl]-3-pyridyl]-1,3-dimethyl-pyridin-2-one]
763 nM	8.8 mL/min/kg	Cc1cc(-c2ccc(N3CCN(Cc4ncc(N5CCNCC5)cn4)CC3)nc2C(C)C)cn(C)c1=O [Example 12, 5-[2-isopropyl-6-[4-[(5-piperazin-1-ylpyrimidin-2-yl)methyl]piperazin-1-yl]-3-pyridyl]-1,3-dimethyl-pyridin-2-one]
143 nM	8.3 mL/min/kg	Cc1cc(-c2ccc(N3CCN(Cc4cccc(N5CCNCC5)c4)CC3)nc2C(C)C)cn(C)c1=O [Example 14, 5-[2-isopropyl-6-[4-[(3-piperazin-1-ylphenyl)methyl]piperazin-1-yl]-3-pyridyl]-1,3-dimethyl-pyridin-2-one]
803 nM	8.7 mL/min/kg	Cc1cc(-c2ccc(N3CCN(c4ccc5c(n4)CCNC5)CC3)nc2C(C)C)cn(C)c1=O [Example 15, 5-[2-isopropyl-6-[4-(5,6,7,8-tetrahydro-1,6-naphthyridin-2-yl)piperazin-1-yl]-3-pyridyl]-1,3-dimethyl-pyridin-2-one]
68 nM	8.5 mL/min/kg	Cc1cc(-c2ccc(N3CCN(Cc4ccc(N5CCNCC5)cc4)CC3)nc2C(F)F)cn(C)c1=O [Example 17, 5-[2-(difluoromethyl)-6-[4-[(4-piperazin-1-ylphenyl)methyl]piperazin-1-yl]-3-pyridyl]-1,3-dimethyl-pyridin-2-one]
798 nM	7.5 mL/min/kg	Cc1cc(-c2ccc(N3CCC(N4CCNCC4)CC3)nc2C(C)C)cn(C)c1=O [Example 18, 5-[2-isopropyl-6-(4-piperazin-1-yl-1-piperidyl)-3-pyridyl]-1,3-dimethyl-pyridin-2-one]
